The text below walks through data of PubChem BioAssay AID330 (DTP/NCI, 2004).

In the assay the test system is P388 leukemia ip, CD2F1 mice, survival T/C. Nature of the assay: NCI In Vivo Anticancer Drug Screen. Data for tumor model P388 Leukemia (intraperitoneal) in CD2F1 (CDF1) mice. Particulars: endpoint: median survival time, higher = longer survival. The method, boiled down: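 Mice carrying the transplanted tumor received test compound or vehicle. Survival was recorded in each group, and the value is the treated-group measurement divided by that of the vehicle-treated control group.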

Where [1] appears, read: dose: 50.0 mg/kg/injection, schedule: Q01DX009 (ip), vehicle: Klucel (hydroxypropylcellulose) (HPC).
Setting [2] is: dose: 100.0 mg/kg/injection, schedule: Q01DX009 (ip), vehicle: Klucel (hydroxypropylcellulose) (HPC).
[3] abbreviates: dose: 200.0 mg/kg/injection, schedule: Q01DX009 (ip), vehicle: Klucel (hydroxypropylcellulose) (HPC).
Where [4] appears, read: dose: 60.0 mg/kg/injection, schedule: Q01DX005 (ip), vehicle: saline with Tween-80.
Where [5] appears, read: dose: 120.0 mg/kg/injection, schedule: Q01DX005 (ip), vehicle: saline with Tween-80.
Where [6] appears, read: dose: 240.0 mg/kg/injection, schedule: Q01DX005 (ip), vehicle: saline with Tween-80.
The mark [7] stands for this setting: dose: 50.0 mg/kg/injection, schedule: Q01DX005 (ip), vehicle: Klucel (hydroxypropylcellulose) (HPC).
[8] abbreviates: dose: 100.0 mg/kg/injection, schedule: Q01DX005 (ip), vehicle: Klucel (hydroxypropylcellulose) (HPC).
Setting [9] is: dose: 200.0 mg/kg/injection, schedule: Q01DX005 (ip), vehicle: Klucel (hydroxypropylcellulose) (HPC).
[10] abbreviates: dose: 3.12 mg/kg/injection, schedule: Q01DX005 (ip), vehicle: Klucel (hydroxypropylcellulose) (HPC).
The mark [11] stands for this setting: dose: 6.25 mg/kg/injection, schedule: Q01DX005 (ip), vehicle: Klucel (hydroxypropylcellulose) (HPC).
Where [12] appears, read: dose: 25.0 mg/kg/injection, schedule: Q01DX005 (ip), vehicle: Klucel (hydroxypropylcellulose) (HPC).

SMILES strings stand for the structures. Several values for one entry are separate records, joined by “and”; a condition that tells them apart may be missing. Equal values may be shown once. Toxic doses and inconclusive results are not listed. Peptide text beside a SMILES is read from it. * marks the point of attachment. Cbz = O=C(OCc1ccccc1)*

Consider `N#Cc1nc(CC(=O)/C=C/c2ccccc2)c(CC(=O)/C=C/c2ccccc2)nc1C#N`, for which the T/C (dose: 60.0 mg/kg/injection, schedule: Q01DX005 (ip), vehicle: saline) was 103 % of control; the T/C (dose: 120.0 mg/kg/injection, schedule: Q01DX005 (ip), vehicle: saline) is 103 % of control; the T/C (dose: 240.0 mg/kg/injection, schedule: Q01DX005 (ip), vehicle: saline) is 112 % of control.
In the case of `C/C(N)=C\C(=S)Nc1ccccc1`, the T/C was 100 % of control (dose: 12.5 mg/kg/injection, schedule: Q01DX009 (ip), vehicle: Klucel (hydroxypropylcellulose) (HPC)); 106 % of control (dose: 25.0 mg/kg/injection, schedule: Q01DX009 (ip), vehicle: Klucel (hydroxypropylcellulose) (HPC)); 104 % of control under setting [1].
With `COc1ccc(C(C)c2cc3c(cc2OC)OCO3)cc1O` (stereo unspecified), the T/C is, setting by setting: (dose: 50.0 mg/kg/injection, schedule: Q01DX005 (ip), vehicle: distilled water + Tween-80) 111 % of control; (dose: 100.0 mg/kg/injection, schedule: Q01DX005 (ip), vehicle: distilled water + Tween-80) 102 % of control; (dose: 200.0 mg/kg/injection, schedule: Q01DX005 (ip), vehicle: distilled water + Tween-80) 105 % of control.
As for `COc1ccc(/C(C#N)=C\c2ccnc3ccccc23)c(OC)c1`, the T/C (dose: 12.5 mg/kg/injection, schedule: Q01DX009 (ip), vehicle: other) is 87 % of control; the T/C (dose: 25.0 mg/kg/injection, schedule: Q01DX009 (ip), vehicle: other) was 91 % of control; the T/C (dose: 50.0 mg/kg/injection, schedule: Q01DX009 (ip), vehicle: other) was 87 % of control; the T/C (dose: 100.0 mg/kg/injection, schedule: Q01DX009 (ip), vehicle: other) was 87 % of control; the T/C (dose: 200.0 mg/kg/injection, schedule: Q01DX009 (ip), vehicle: other) was 87 % of control.
Consider `C(=N\Nc1nnc(-c2ccccc2)c(-c2ccccc2)n1)/c1cccnc1`, for which the T/C (dose: 12.5 mg/kg/injection, schedule: Q01DX005 (ip), vehicle: saline with Tween-80) was 86 % of control; the T/C (dose: 25.0 mg/kg/injection, schedule: Q01DX005 (ip), vehicle: saline with Tween-80) was 96 % of control; the T/C (dose: 50.0 mg/kg/injection, schedule: Q01DX005 (ip), vehicle: saline with Tween-80) is 89 % of control; the T/C (dose: 200.0 mg/kg/injection, schedule: Q01DX005 (ip), vehicle: saline with Tween-80) is 90 % of control.
Consider `C=CCC(C(=O)OC)c1ccc(F)cc1` (stereo unspecified), for which the T/C is, setting by setting: (dose: 0.06 mg/kg/injection, schedule: Q01DX009 (ip), vehicle: saline) 111 % of control; (dose: 0.13 mg/kg/injection, schedule: Q01DX009 (ip), vehicle: saline) 102 % of control; (dose: 0.25 mg/kg/injection, schedule: Q01DX009 (ip), vehicle: saline) 101 % of control; (dose: 1.0 mg/kg/injection, schedule: Q01DX009 (ip), vehicle: saline) 88 % of control.
On to `CC(=O)Nc1cc(NC(C)=O)cc(C(=O)O)c1`, for which the T/C runs as follows: (dose: 60.0 mg/kg/injection, schedule: Q01DX005 (ip), vehicle: Klucel (hydroxypropylcellulose) (HPC)) 90 % of control; (dose: 120.0 mg/kg/injection, schedule: Q01DX005 (ip), vehicle: Klucel (hydroxypropylcellulose) (HPC)) 90 % of control; (dose: 240.0 mg/kg/injection, schedule: Q01DX005 (ip), vehicle: Klucel (hydroxypropylcellulose) (HPC)) 90 % of control.
`O=CNNC(=O)C(Cl)Cl`: the T/C runs as follows: under setting [1], 107 % of control; under setting [2], 107 % of control; under setting [3], 112 % of control.
Regarding `O=C(Nc1cccc2c1C(O)c1ccccc1-2)C(Cl)Cl` (stereo unspecified), the T/C is 97 % of control under setting [4], 98 % of control under setting [5] and 104 % of control under setting [6].
For the compound `C=CCCCn1nc(-c2ccccc2)c(-c2ccccc2)n1`, the T/C (dose: 50.0 mg/kg/injection, schedule: Q01DX009 (ip), vehicle: saline with Tween-80) was 106 % of control; the T/C (dose: 100.0 mg/kg/injection, schedule: Q01DX009 (ip), vehicle: saline with Tween-80) is 100 % of control; the T/C (dose: 200.0 mg/kg/injection, schedule: Q01DX009 (ip), vehicle: saline with Tween-80) was 103 % of control.
Take `O=C(NC(Cc1cnc[nH]1)C(=O)NC(Cc1ccc(O)cc1)C(=O)O)OCc1ccccc1` (stereo not drawn) (Cbz-His-Tyr-OH; configuration not given here): the T/C by setting is: under setting [7], 93 % of control; under setting [8], 95 % of control; under setting [9], 92 % of control.
In the case of `COC(=O)N1c2ccccc2N(C(=O)OC)C1C#N`, the T/C was 108 % of control under setting [4], 98 % of control under setting [5] and 112 % of control under setting [6].
Consider `Cc1ccc2nc(NC(=S)NCCNC(=S)Nc3ccc4cc(C)ccc4n3)ccc2c1`, for which the T/C reads like this: under setting [1], 94 % of control; under setting [2], 92 % of control; under setting [3], 90 % of control.
Turning to `CCN(CC)c1ccc(Cc2ccc(N(CC)CC)c3cccnc23)c2ncccc12`, the T/C under setting [7] is 100 % of control, the T/C under setting [8] is 99 % of control and the T/C under setting [9] is 98 % of control.
With `CN/N=C/c1ccc(O)c(OC)c1`, the T/C is 100 % of control (dose: 100.0 mg/kg/injection, schedule: Q04DX003 (ip), vehicle: saline with Tween-80); 100 % of control (dose: 200.0 mg/kg/injection, schedule: Q04DX003 (ip), vehicle: saline with Tween-80); 100 % of control (dose: 400.0 mg/kg/injection, schedule: Q04DX003 (ip), vehicle: saline with Tween-80).
As to `COc1cccc2c1C(=O)c1c(O)c3c(c(O)c1C2=O)C[C@@](O)(C(=O)COC(=O)c1ccccc1)C[C@@H]3OC1CC(N)C(O)C(C)O1` (stereo partly specified), the T/C by setting is: (dose: 0.5 mg/kg/injection, schedule: Q01DX009 (ip), vehicle: saline sonified) 168 % of control; (dose: 1.0 mg/kg/injection, schedule: Q01DX009 (ip), vehicle: saline sonified) 186 % of control; (dose: 2.0 mg/kg/injection, schedule: Q01DX009 (ip), vehicle: saline sonified) 190 % of control.
As for `CS1(C)=NC(=O)C2=C(N=1)c1ccccc1S2(=O)=O`, the T/C runs as follows: under setting [4], 97 % of control; under setting [5], 94 % of control; under setting [6], 89 % of control.
For `O=c1oc2c(-c3c(O)c(=O)oc4ccccc34)cc(O)cc2s1`, the T/C was 96 % of control under setting [7], 103 % of control under setting [8] and 104 % of control under setting [9].
`CCOP(O)(=S)OCC.[Ho]`: the T/C runs as follows: (dose: 100.0 mg/kg/injection, schedule: Q01DX001 (ip), vehicle: Klucel (hydroxypropylcellulose) (HPC)) 91 % of control; (dose: 200.0 mg/kg/injection, schedule: Q01DX001 (ip), vehicle: Klucel (hydroxypropylcellulose) (HPC)) 88 % of control; (dose: 400.0 mg/kg/injection, schedule: Q01DX001 (ip), vehicle: Klucel (hydroxypropylcellulose) (HPC)) 90 % of control.
For `CC(=O)[O][Bi]([c]1ccccc1)[c]1ccccc1`, the T/C under setting [10] was 106 % of control and 108 % of control; the T/C under setting [11] was 108 % of control and 110 % of control; the T/C (dose: 12.5 mg/kg/injection, schedule: Q01DX005 (ip), vehicle: Klucel (hydroxypropylcellulose) (HPC)) is 103 % of control and 120 % of control; the T/C under setting [12] is 118 % of control; the T/C under setting [7] is 90 % of control.
On to `O=[N+]([O-])c1ccccc1NN=NCCCl`, for which the T/C by setting is: under setting [10], 112 % of control; under setting [11], 120 % of control; under setting [12], 120 % of control.
Take `CC(=O)Nc1nc(C)c(S(=O)(=O)Cl)s1`: the T/C (dose: 50.0 mg/kg/injection, schedule: Q01DX009 (ip), vehicle: saline) was 102 % of control; the T/C (dose: 100.0 mg/kg/injection, schedule: Q01DX009 (ip), vehicle: saline) is 98 % of control; the T/C (dose: 200.0 mg/kg/injection, schedule: Q01DX009 (ip), vehicle: saline) is 102 % of control; the T/C (dose: 400.0 mg/kg/injection, schedule: Q01DX009 (ip), vehicle: saline) was 94 % of control.
With `COc1ccc(-c2nnc3cc(C)n4nnnc4n23)cc1OC`, the T/C by setting is: under setting [7], 100 % of control; under setting [8], 96 % of control; under setting [9], 94 % of control.
